Test results from paper PMC9855333, “1-(Arylsulfonyl-isoindol-2-yl)piperazines as 5-HT6R Antagonists: Mechanochemical Synthesis, In Vitro Pharmacological Properties and Glioprotective Activity” (Biomolecules, 2022).
Values joined by “and” are separate entries in the source; they are usually repeats but may differ in a detail not shown here. Identical values can stand only once.

Legend:
[1] = molecular target: T1, 5-HT6R (Homo sapiens, UniProt P50406); assay: Radioligand binding, [3H]-LSD displacement, HEK-293 cells; set-up: expressed in transfected cells; conditions: Table 1; HEK293 cells; three independent binding experiments; read-out: Ki [nM] ± SEM at the 5-HT6R
Method: All experiments were performed in HEK-293 cells, which stably express the human 5-HT1A, 5-HT6, 5-HT7b, and D2L receptors, or using CHO-K1 cells expressing human serotonin 5-HT2A receptor, following the previously reported procedures. For displacement studies, the following radioligands (PerkinElmer, USA) at given concentrations were used at: 2.5 nM [^3H]-8-OH-DPAT (135.2 Ci/ mmol); 1 nM [^3H]-ketanserin (53.4 Ci/mmol); 2 nM [^3H]-LSD (83.6 Ci/mmol); 0.8 nM [^3H]-5-CT (39.2 Ci/mmol) or 2.5 nM [^3H]-raclopride (76.0 Ci/mmol) for 5-HT1A, 5-HT2A, 5-HT6, 5-HT7b and D2L receptors, respectively. All tested compounds were evaluated in triplicate at 7 concentrations (10^−10–10^−4 M). The inhibition constants (Ki) were calculated from the Cheng–Prusoff equation [25]. A detailed description is reported in the Supporting Information.
All synthesized compounds were evaluated in ^3[H]-LSD competition binding experiments for their affinity for 5-HT6R expressed in HEK-293 cells (Table 1). Embedding the sulfonamide moiety into an unsubstituted isoindoline scaffold was sufficient to provide potent compounds 3a and 3e. […] This effect might result from the favorable localization of the bromine atom at the isoindoline fragment, which enabled compound 3k to adopt an optimal position in the receptor binding pocket via the formation of hydrophobic/steric interactions.
1. Procedure for radioligand binding assay
All experiments were carried out according to the previously published procedures. HEK293 cells stably expressing human 5-HT1A, 5-HT6, 5-HT7b and D2L receptors (prepared with the use of Lipofectamine 2000) or CHO-K1 cells with plasmid containing the sequence coding for the human serotonin 5-HT2A receptor (Perkin Elmer) were maintained at 37 °C in a humidified atmosphere containing 5% CO2 and grown in Dulbecco’s Modified Eagle’s Medium containing 10% dialyzed fetal bovine serum and 500 μg/ml G418 sulfate. For membrane preparation, cells were cultured in 150 cm2 flasks, grown to 90% confluence, washed twice with pre-warmed to 37 °C phosphate buffered saline (PBS) and centrifuged (200 × g) in PBS containing 0.1 mM EDTA and 1 mM dithiothreitol. Prior to membrane preparation, pellets were stored at –80 °C. Cell pellets were thawed and homogenized in 10 volumes of assay buffer using an Ultra Turrax tissue homogenizer and centrifuged twice at 35,000 × g for 15 min at 4 °C, with incubation for 15 min at 37 °C between the centrifugations. The composition of the assay buffers was experimentally selected to achieve the […]
5-HT1AR: 50 mM Tris HCl, 0.1 mM EDTA, 4 mM MgCl2, 10 μM pargyline and 0.1% ascorbate; 5-HT2AR: 50 mM Tris HCl, 0.1 mM EDTA, 4 mM MgCl2 and 0.1% ascorbate;
5-HT6R: 50 mM Tris HCl, 0.5 mM EDTA and 4 mM MgCl2; 5-HT7bR: 50 mM Tris HCl, 4 mM MgCl2, 10 μM pargyline and 0.1% ascorbate; D2LR: 50 mM Tris HCl, 1 mM EDTA, 4 mM MgCl2, 120 mM NaCl, 5 mM KCl, 1.5 mM CaCl2 and 0.1% ascorbate).
All assays were carried out in a total volume of 200 μL in 96-well plates for 1 h at 37 °C, except 5-HT1AR and 5-HT2AR which were incubated at room temperature and 27 °C, respectively.
The process of equilibration was terminated by rapid filtration through Unifilter plates with a 96-well cell harvester and radioactivity retained on the filters was quantified on a Microbeta plate reader (PerkinElmer, USA). For displacement studies the assay samples contained as radioligands (PerkinElmer, USA): 2.5 nM [3H]-8-OH-DPAT (135.2 Ci/ mmol) for 5-HT1AR; 1 nM [3H]-ketanserin (53.4 Ci/mmol) for 5-HT2AR; 2 nM [3H]-LSD (83.6 Ci/mmol) for 5-HT6R; 0.8 nM [3H]-5-CT (39.2 Ci/mmol) for 5-HT7R or 2.5 nM [3H]-raclopride (76.0 Ci/mmol) for D2LR. Non-specific binding was defined in the presence of 10 μM of 5-HT in 5-HT1AR and 5-HT7R binding experiments, 20 μM of mianserin for 5-HT2AR, 10 μM of methiothepine for 5-HT6R or 10 μM of haloperidol for D2LR bidning assays. Each compound was tested in triplicate at 7 concentrations (10-10–10-4 M). The inhibition constants (Ki) were calculated […]

[2] = test system: C8-D1A astrocytes; assay: Glioprotection against 6-OHDA-induced cytotoxicity, MTT; assay type: cell-based, mouse; conditions: compound 0.25 µM, 6-OHDA 20 µM, 24 h
Method: (§1) Mouse astrocytes (C8-D1A cell line, ATCC) were cultured in DMEM (Dulbecco’s Modified Eagle’s Medium) supplemented with 10% FBS (FBS; Gibco, Life Technologies, Carlsbad, CA, USA) and 1% antibiotic mixture (Gibco, Life Technologies, Carlsbad, CA, USA) at standard condition until the cells reached 80–90% confluence. Cells were harvested and seeded in 96-well plates at a density of 5000 cells/well. All experiments were conducted with a reduced amount of serum equal to 2.5%. The optimal amount of serum was determined experimentally on the basis of preliminary studies. […] Then 6-OHDA (20 µM) or rotenone (0.5 µM) were added and co-incubated for the next 24 h. The ability of tested compounds to prevent 6-OHDA-induced or rotenone-induced cytotoxicity was assessed by MTT assay following the protocol described above. The experiments were run three times in triplicates.
(§2) Considering the pivotal physiological role of astrocytes in contrasting oxidative stress and promoting tissue repair, supporting their neuroprotective function might be regarded as a tangible strategy to improve the current therapeutic needs in the treatment of neurodegenerative disorders. […] For this purpose, cells were co-incubated with the evaluated compounds (at the non-toxic concentration of 0.25 µM) and 6-OHDA or ROT (20 and 0.5 µM, respectively). After 24 h of incubation, the viability of astrocytes was determined using the MTT assay.

[3] = test system: C8-D1A astrocytes; assay: Glioprotection against rotenone-induced cytotoxicity, MTT; assay type: cell-based, mouse; conditions: compound 0.25 µM, rotenone 0.5 µM, 24 h
Method: as §1, §2

[4] = Cytotoxicity, MTT test, HepG2; assay type: cell-based; conditions: human, HepG2 cells (human hepatocellular carcinoma)
Method: (§3) Hepatotoxicity, neurotoxicity, and glial cytotoxicity were investigated using the following cellular models: human hepatocellular carcinoma (HepG2), human neuroblastoma (SHSY-5Y), and mouse astrocytes (C8-D1A), all from ATCC (American Type Culture Collection, Manassas, VA, USA). Cells were cultured in appropriate culture media recommended by ATCC supplemented with 10% fetal bovine serum (FBS; Gibco, Life Technologies, Carlsbad, CA, USA) and 1% antibiotic mixture (Gibco, Life Technologies, Carlsbad, CA, USA). Cells were cultured at standard conditions (5% CO2, 95% humidity, 37 °C). For cytotoxicity experiments, cells were seeded into 96 well plates at an initial density of 2000 cells/well. After overnight incubation, cells were treated with 3e, 3f, and 3g in a concentration range of 0.78–50 µM for 48 h; then, an MTT assay was performed as described previously. Briefly, following cell exposure, 10 µL of MTT reagent was added to each well. After the next 4 h, the medium was aspirated, and formazan produced in cells appeared as dark crystals in the bottom of the wells. Next, 100 µL DMSO was added to each well. Then, the optical density of the solution (OD) at 570 nm was determined on a plate reader (Spectra Max iD3, Molecular Devices, San Jose, CA, USA). The experiments were run three times in triplicates.

[5] = Cytotoxicity, MTT test, SH-SY5Y; assay type: cell-based; conditions: human, SH-SY5Y cells (human neuroblastoma)
Method: as §3

[6] = Cytotoxicity, MTT test, C8-D1A; assay type: cell-based; conditions: mouse, C8-D1A cells (mouse astrocytes)
Method: as §3

[7] = test system: 5-HT6R-operated Cdk5 signaling; conditions: Figure 1; cited from earlier work
[8] = molecular target: T1, 5-HT6R; set-up: expressed in transfected cells; host or cells: NG108-15 (mouse neuroblastoma x rat glioma hybrid), transient co-transfection with CAMYEL, Lipofectamine 2000; conditions: Figure 1; cited from earlier work

T1 sequence (P50406 whole entry): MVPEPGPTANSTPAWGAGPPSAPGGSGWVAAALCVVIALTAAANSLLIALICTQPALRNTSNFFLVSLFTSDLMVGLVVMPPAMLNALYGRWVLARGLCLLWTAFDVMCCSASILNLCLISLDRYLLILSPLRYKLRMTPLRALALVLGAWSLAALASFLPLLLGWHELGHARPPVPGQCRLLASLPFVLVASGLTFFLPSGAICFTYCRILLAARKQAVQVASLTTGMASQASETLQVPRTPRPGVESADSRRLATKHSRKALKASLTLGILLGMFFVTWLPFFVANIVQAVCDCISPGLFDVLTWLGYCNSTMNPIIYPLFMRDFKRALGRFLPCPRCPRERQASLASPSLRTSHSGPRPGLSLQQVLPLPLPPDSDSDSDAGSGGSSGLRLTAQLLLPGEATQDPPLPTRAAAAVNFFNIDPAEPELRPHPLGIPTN

SMILES | Ki [1] | other results
O=S(=O)(c1ccc(N2CCNCC2)cc1)N1Cc2ccccc2C1 [3a, 2-{[4-(Piperazin-1-yl)phenyl]sulfonyl}isoindoline] | 6 ± 1 nM | 
O=S(=O)(c1ccc(N2CCNCC2)cc1)N1Cc2cccc(Cl)c2C1 [3b, 4-Chloro-2-{[4-(piperazin-1-yl)phenyl]sulfonyl}isoindoline] | 7 ± 1 nM | 
O=S(=O)(c1ccc(N2CCNCC2)cc1)N1Cc2cccc(Br)c2C1 [3c, 4-Bromo-2-{[4-(piperazin-1-yl)phenyl]sulfonyl}isoindoline] | 10 ± 2 nM | 
O=S(=O)(c1ccc(N2CCNCC2)cc1)N1Cc2ccc(Br)cc2C1 [3d, 5-Bromo-2-{[4-(piperazin-1-yl)phenyl]sulfonyl}isoindoline] | 87 ± 12 nM | 
O=S(=O)(c1cccc(N2CCNCC2)c1)N1Cc2ccc(Br)cc2C1 [3h, 5-Bromo-2-{[3-(piperazin-1-yl)phenyl]sulfonyl}isoindoline] | < 5 nM and 4 nM | 
O=S(=O)(c1ccccc1N1CCNCC1)N1Cc2ccccc2C1 [3i, 2-{[2-(Piperazin-1-yl)phenyl]sulfonyl}isoindoline] | > 900 nM and 977 nM | 
O=S(=O)(c1ccccc1N1CCNCC1)N1Cc2cccc(Cl)c2C1 [3j, 4-Chloro-2-{[2-(piperazin-1-yl)phenyl]sulfonyl}isoindoline] | > 900 nM and 918 nM | 
O=S(=O)(c1ccccc1N1CCNCC1)N1Cc2cccc(Br)c2C1 [3k, 4-Bromo-2-{[2-(piperazin-1-yl)phenyl]sulfonyl}isoindoline] | 32 ± 5 nM | 
O=S(=O)(c1ccccc1N1CCNCC1)N1Cc2ccc(Br)cc2C1 [3l, 5-Bromo-2-{[2-(piperazin-1-yl)phenyl]sulfonyl}isoindoline] | > 900 nM and 1170 nM | 
O=S(=O)(c1cccc(Cl)c1)n1ccc2c(N[C@H]3CCNC3)nc3ccccc3c21 [CPPQ, (S)-1-[(3-chlorophenyl)sulfonyl]-4-(pyrrolidine-3-yl-amino)-1H-pyrrolo[3,2-c]quinoline] |  | effect on 6-OHDA-induced cytotoxicity [2]: decreased the cytotoxicity; effect on ROT-induced cytotoxicity [3]: decreased the cytotoxicity
COc1cccc2c1C(=O)c1c(O)c3c(c(O)c1C2=O)C[C@@](O)(C(=O)CO)C[C@@H]3O[C@H]1C[C@H](N)[C@H](O)[C@H](C)O1 [Doxorubicin, reference compound] |  | IC50 at 48 h [4]: 10.8 µM; IC50 at 48 h [5]: 4.4 µM; IC50 at 48 h [6]: 12.3 µM
O=C(N[C@@H]1CCNC1)c1ccn(S(=O)(=O)c2cccc(Cl)c2)c1-c1ccc(F)cc1 [I] |  | Functional profile at Cdk5 [7]: Inverse agonist; Functional profile at Gs [8]: Inverse agonist
NCCc1cn(S(=O)(=O)c2c(Cl)nc3sccn23)c2ccccc12 [WAY-181187] |  | effect on 6-OHDA-induced cytotoxicity [2]: slightly but not significantly enhanced the gliotoxic effects; effect on ROT-induced cytotoxicity [3]: slightly but not significantly enhanced the gliotoxic effects
